Assay results as given in patent publication US11072588B2, “Barbituric acid derivatives comprising cationic and lipophilic groups” (UNIVERSITETET I TROMSØ—NORGES ARKTISKE UNIVERSITET, priority 2017, dated 2021).
In brackets after ≈: the same amount, converted by molar mass.

Tests used:
E. faecium K36-18 = assay: MIC, multi-resistant clinical isolate; type: cell-based, Enterococcus faecium
Description: (§1) Working solutions of the test derivatives were prepared with up to 100% DMSO and stored at −20° C. If necessary, the solutions were heated to 40-80° C. before testing to facilitate complete dissolution. Double-distilled water was used in all dilutions prepared. […] A microdilution susceptibility test was used for MIC determination according to Clinical and Laboratory Standards Institute, “Methods for Dilution Antimicrobial Sisceptibility Tests for Bacteria That Graw Aerobically”, Approved Standard M07-A9, edition 2012, with modifications as described by Igumnova et al (Bioorg Med Chem, 2016, 24 (22), 5884-5894).
(§2) Briefly, the bacterial inoculum was adjusted to approximately 2.5-3×10^4 cells/mL in Mueller-Hinton broth (MHB, Difco Laboratories, USA), and incubated in a ratio of 1:1 with test derivatives in polystyrene 96-well flat-bottom microplates (NUNC, Roskilde, Denmark). Positive growth control (without test derivatives) and negative control (without bacteria) were included. The reference antibiotic was oxytetracycline hydrochloride (Sigma Aldrich, Saint Louis, Mo., USA). The microplates were incubated in an EnVision microplate reader (Perkin-Elmer, Turku, Finland) placed in an incubator set to 35° C. for 48 h. The MIC value was defined as the lowest concentration of derivative resulting in no bacterial growth as determined by OD600 measurement. All derivatives were tested in three parallels.
(§3) The MIC was determined as explained above with some exceptions; working solutions of test derivatives were prepared from concentrated DMSO stocks stored at room temperature, the density of the bacterial inoculum was increased 40× to 1-1.2×10^6 cells/mL, enterococci were incubated in Brain Heart Infusion broth (BHIB, Difco Laboratories, USA), the microplates were incubated for 24 h, and the derivatives were tested in four parallels.

E. faecium 50901530 = assay: MIC, multi-resistant clinical isolate; type: cell-based, Enterococcus faecium
Description: as §1, §2, §3

E. faecium 50758899 = assay: MIC, multi-resistant clinical isolate; type: cell-based, Enterococcus faecium
Description: as §1, §2, §3

E. faecium 50673722 = assay: MIC, multi-resistant clinical isolate; type: cell-based, Enterococcus faecium
Description: as §1, §2, §3

E. faecium TUH50-22 = assay: MIC, multi-resistant clinical isolate; type: cell-based, Enterococcus faecium
Description: as §1, §2, §3

P. aeruginosa 50692520 = assay: MIC, multi-resistant clinical isolate; type: cell-based, Pseudomonas aeruginosa
Description: as §1, §2, §3

P. aeruginosa K44-24 = assay: MIC, multi-resistant clinical isolate; type: cell-based, Pseudomonas aeruginosa
Description: as §1, §2, §3

P. aeruginosa K34-7 = assay: MIC, multi-resistant clinical isolate; type: cell-based, Pseudomonas aeruginosa
Description: as §1, §2, §3

P. aeruginosa 50692172 = assay: MIC, multi-resistant clinical isolate; type: cell-based, Pseudomonas aeruginosa
Description: as §1, §2, §3

P. aeruginosa K34-73 = assay: MIC, multi-resistant clinical isolate; type: cell-based, Pseudomonas aeruginosa
Description: as §1, §2, §3

E. coli 50579417 = assay: MIC, multi-resistant clinical isolate; type: cell-based, Escherichia coli
E. coli 50857972 = assay: MIC, multi-resistant clinical isolate; type: cell-based, Escherichia coli
E. coli 50676002 = assay: MIC, multi-resistant clinical isolate; type: cell-based, Escherichia coli
E. coli 50639799 = assay: MIC, multi-resistant clinical isolate; type: cell-based, Escherichia coli
K. pneumoniae 50667959 = assay: MIC, multi-resistant clinical isolate; type: cell-based, Klebsiella pneumoniae
Description: as §1, §2, §3

K. pneumoniae 50625602 = assay: MIC, multi-resistant clinical isolate; type: cell-based, Klebsiella pneumoniae
Description: as §1, §2, §3

K. pneumoniae K66-45 = assay: MIC, multi-resistant clinical isolate; type: cell-based, Klebsiella pneumoniae
Description: as §1, §2, §3

K. pneumoniae 50531633 = assay: MIC, multi-resistant clinical isolate; type: cell-based, Klebsiella pneumoniae; conditions: K. pneumoniae 50531633, resistant to colistin
Description: as §1, §2, §3

K. pneumoniae K47-25 = assay: MIC, multi-resistant clinical isolate; type: cell-based, Klebsiella pneumoniae; conditions: Klebsiella pneumoniae, K4725, 24 h, read-out: Antimicrobial activity (MIC)
Description: as §1, §2, §3

[1] = test system: panel of 30 multi-resistant clinical isolates of Gram-positive and Gram-negative bacteria; assay: MIC screening, ranges over the panel of clinical isolates; type: cell-based; conditions: Enterococcus faecium, read-out: MIC values against the Gram-positive isolates of S. aurues and E. faecium
Description: as §1, §2, §3

[2] = test system: Pseudomonas aeruginosa PA01, DSM 19880 (ATCC 15692); assay: MIC assay, antibiotic susceptible reference strain; type: cell-based; conditions: Pseudomonas aeruginosa, read-out: Antimicrobial activity (MIC) P. a
Description: as §1, §2

[3] = test system: Staphylococcus aureus ATCC 9144; assay: MIC assay, antibiotic susceptible reference strain; type: cell-based; conditions: Staphylococcus aureus, ATCC9144, read-out: Antimicrobial activity (MIC) S. a
Description: as §1, §2

[4] = test system: Escherichia coli ATCC 25922; assay: MIC assay, antibiotic susceptible reference strain; type: cell-based; conditions: Escherichia coli, ATCC25922, read-out: Antimicrobial activity (MIC) E. c
Description: as §1, §2

[5] = Enterococcus faecium, read-out: Antimicrobial activity (MIC)
[6] = Pseudomonas aeruginosa, read-out: Antimicrobial activity (MIC)
[7] = Escherichia coli, read-out: Antimicrobial activity (MIC)
[8] = Klebsiella pneumoniae, read-out: Antimicrobial activity (MIC)

NCCCCN1C(=O)N(CCCCN)C(=O)C(Cc2ccc(F)c3ccccc23)(Cc2ccc(F)c3ccccc23)C1=O [7(v), 1,3-bis(4-aminobutyl)-5,5-bis((4-fluoronaphtalen-1-yl)methyl)pyrimidin-2,4,6(1H,3H,5H)-trione]
MIC (E. faecium K36-18; Enterococcus faecium, K3618, read-out: Antimicrobial activity (MIC)): 8 µg/mL (≈ 13.6 µM) | selectivity index (EC50/MIC) (E. faecium K36-18; RBC EC50 / MIC, E. faecium K36-18): (20) | MIC (E. faecium 50901530; [5]): 4 µg/mL (≈ 6.82 µM) | selectivity index (EC50/MIC) (E. faecium 50901530; RBC EC50 / MIC): (40) | MIC (E. faecium 50758899; [5]): 8 µg/mL (≈ 13.6 µM) | selectivity index (EC50/MIC) (E. faecium 50758899; RBC EC50 / MIC): (20) | MIC (E. faecium 50673722; [5]): 8 µg/mL (≈ 13.6 µM) | selectivity index (EC50/MIC) (E. faecium 50673722; RBC EC50 / MIC): (20) | MIC (E. faecium TUH50-22; Enterococcus faecium, TUH5022, read-out: Antimicrobial activity (MIC)): 4 µg/mL (≈ 6.82 µM) | selectivity index (EC50/MIC) (E. faecium TUH50-22; RBC EC50 / MIC): (40) | MIC (P. aeruginosa 50692520; [6]): 16 µg/mL (≈ 27.3 µM) | selectivity index (EC50/MIC) (P. aeruginosa 50692520; RBC EC50 / MIC): (10) | MIC (P. aeruginosa K44-24; Pseudomonas aeruginosa, K4424, read-out: Antimicrobial activity (MIC)): 32 µg/mL (≈ 54.5 µM) | selectivity index (EC50/MIC) (P. aeruginosa K44-24; RBC EC50 / MIC): (5) | MIC (P. aeruginosa K34-7; Pseudomonas aeruginosa, K347, read-out: Antimicrobial activity (MIC)): 32 µg/mL (≈ 54.5 µM) | selectivity index (EC50/MIC) (P. aeruginosa K34-7; RBC EC50 / MIC, P. aeruginosa K34-7): (5) | MIC (P. aeruginosa 50692172; [6]): 16 µg/mL (≈ 27.3 µM) | selectivity index (EC50/MIC) (P. aeruginosa 50692172; RBC EC50 / MIC): (10) | MIC (P. aeruginosa K34-73; Pseudomonas aeruginosa, K3473, read-out: Antimicrobial activity (MIC)): 32 µg/mL (≈ 54.5 µM) | selectivity index (EC50/MIC) (P. aeruginosa K34-73; RBC EC50 / MIC, P. aeruginosa K34-73): (5) | MIC (E. coli 50579417; [7]): 16 µg/mL (≈ 27.3 µM) | selectivity index (EC50/MIC) (E. coli 50579417; RBC EC50 / MIC): (10) | MIC (E. coli 50857972; [7]): 16 µg/mL (≈ 27.3 µM) | selectivity index (EC50/MIC) (E. coli 50857972; RBC EC50 / MIC): (10) | MIC (E. coli 50676002; Escherichia coli, 50676002, read-out: Antimicrobial activity (MIC)): 16 µg/mL (≈ 27.3 µM) | selectivity index (EC50/MIC) (E. coli 50676002; RBC EC50 / MIC, E. coli 50676002): (10) | MIC (E. coli 50639799; [7]): 16 µg/mL (≈ 27.3 µM) | selectivity index (EC50/MIC) (E. coli 50639799; RBC EC50 / MIC): (10) | MIC (K. pneumoniae 50667959; [8]): 32 µg/mL (≈ 54.5 µM) | selectivity index (EC50/MIC) (K. pneumoniae 50667959; RBC EC50 / MIC): (5) | MIC (K. pneumoniae 50625602; [8]): 32 µg/mL (≈ 54.5 µM) | selectivity index (EC50/MIC) (K. pneumoniae 50625602; RBC EC50 / MIC): (5) | MIC (K. pneumoniae K66-45; Klebsiella pneumoniae, K6645, read-out: Antimicrobial activity (MIC)): 32 µg/mL (≈ 54.5 µM) | selectivity index (EC50/MIC) (K. pneumoniae K66-45; RBC EC50 / MIC, K. pneumoniae K66-45): (5) | MIC (K. pneumoniae 50531633; Klebsiella pneumoniae, 24 h, read-out: Antimicrobial activity (MIC)): 16 µg/mL (≈ 27.3 µM) | selectivity index (EC50/MIC) (K. pneumoniae 50531633; RBC EC50 / MIC): (10) | MIC (K. pneumoniae K47-25): > 32 µg/mL | MIC [1]: 4 to 16 µg/mL (≈ 6.82 to 27.3 µM) | MIC [2]: 8 µg/mL (≈ 13.6 µM) | MIC [3]: 4 µg/mL (≈ 6.82 µM) | MIC [4]: 16 µg/mL (≈ 27.3 µM)
